Our source for the MIC values is ChEMBL document CHEMBL1681648, “Synthesis and in vitro antibacterial activity of oxazolidine LBM-415 analogs as peptide deformylase inhibitors” (2011).

Values after ≈ are worked out from the molar mass of the structure shown. Bounds are passed on as bounds.

Holding throughout (format): functional
A short description of assay [1]: Antimicrobial activity against Streptomyces albus 260101 after 24 hrs by agar dilution method. The following applies: Streptomyces albus, 260101, 24 h.
A further assay deals with Shigella boydii. As to the kind of experiment: Antimicrobial activity against Shigella boydii 51313 after 24 hrs by agar dilution method. The following applies: Shigella boydii, 51313, 24 h.
A further assay concerns Staphylococcus aureus. Description: Antimicrobial activity against Staphylococcus aureus 26003 after 24 hrs by agar dilution method. The following applies: Staphylococcus aureus, 26003, 24 h.
Another assay deals with Streptococcus pneumoniae. Description: Antimicrobial activity against Streptococcus pneumoniae 31002 after 24 hrs by agar dilution method. The following applies: Streptococcus pneumoniae, 31002, 24 h.
For a further assay, the system named is Shigella flexneri. As to the kind of experiment: Antimicrobial activity against Shigella flexneri 92475 after 24 hrs by agar dilution method. The following applies: Shigella flexneri, 92475, 24 h.

As to `CCCC[C@H](CN(O)C=O)C(=O)N1COC[C@H]1C(=O)Nc1ccc(C)cc1`, the MIC was 0.78 µg/mL (≈ 2.07 µM) in assay [1]; more than 6.25 µg/mL against Shigella boydii; 0.78 µg/mL (≈ 2.07 µM) against Staphylococcus aureus; 0.195 µg/mL (≈ 0.517 µM) against Streptococcus pneumoniae; more than 6.25 µg/mL in the assay on Shigella flexneri.

As to `CCCC[C@H](CN(O)C=O)C(=O)N1CO[C@H](C)[C@H]1C(=O)Nc1ccc(C)cc1`, the MIC in assay [1] is 0.78 µg/mL (≈ 1.99 µM); against Shigella boydii, more than 6.25 µg/mL; against Staphylococcus aureus it was 1.56 µg/mL (≈ 3.99 µM); in the assay on Streptococcus pneumoniae, 0.098 µg/mL (≈ 0.25 µM); with Shigella flexneri, more than 6.25 µg/mL.

For `CCCC[C@H](CN(O)C=O)C(=O)N1CO[C@H](C)[C@H]1C(=O)Nc1ccc(F)c[n+]1[O-]`, the MIC in assay [1] is 0.78 µg/mL (≈ 1.89 µM); in the assay on Shigella boydii it was more than 6.25 µg/mL; in the assay on Staphylococcus aureus, 1.56 µg/mL (≈ 3.78 µM); in the assay on Streptococcus pneumoniae, 0.195 µg/mL (≈ 0.473 µM); against Shigella flexneri, more than 6.25 µg/mL.

For the compound `CCCC[C@H](CN(O)C=O)C(=O)N1CCC[C@H]1C(=O)Nc1ccc(F)c[n+]1[O-]`, the MIC was 0.39 µg/mL (≈ 0.984 µM) in assay [1]; 6.25 µg/mL (≈ 15.8 µM) in the assay on Shigella boydii; 0.39 µg/mL (≈ 0.984 µM) with Staphylococcus aureus; 0.195 µg/mL (≈ 0.492 µM) with Streptococcus pneumoniae; more than 6.25 µg/mL in the assay on Shigella flexneri.

In the case of `CCCC[C@H](CN(O)C=O)C(=O)N1COC[C@H]1C(=O)Nc1ccccc1`, the MIC in assay [1] was 0.39 µg/mL (≈ 1.07 µM); against Shigella boydii, more than 6.25 µg/mL; against Staphylococcus aureus it was 0.39 µg/mL (≈ 1.07 µM); in the assay with Streptococcus pneumoniae it was 0.195 µg/mL (≈ 0.537 µM); in the assay on Shigella flexneri it was more than 6.25 µg/mL.

`CCCC[C@H](CN(O)C=O)C(=O)N1COC[C@H]1C(=O)Nc1ccc(F)cc1`: the MIC was 0.39 µg/mL (≈ 1.02 µM) in assay [1]; more than 6.25 µg/mL with Shigella boydii; 0.39 µg/mL (≈ 1.02 µM) with Staphylococcus aureus; 0.195 µg/mL (≈ 0.511 µM) against Streptococcus pneumoniae; more than 6.25 µg/mL in the assay on Shigella flexneri.

`CCCC[C@H](CN(O)C=O)C(=O)N1COC[C@H]1C(=O)Nc1c(F)cccc1F`: the MIC in assay [1] was 0.39 µg/mL (≈ 0.976 µM); against Shigella boydii, more than 6.25 µg/mL; in the assay with Staphylococcus aureus, 0.39 µg/mL (≈ 0.976 µM); with Streptococcus pneumoniae it was 0.195 µg/mL (≈ 0.488 µM); against Shigella flexneri, more than 6.25 µg/mL.

As to `CCCC[C@H](CN(O)C=O)C(=O)N1COC[C@H]1C(=O)Nc1ccc(F)cn1`, the MIC in assay [1] was 0.39 µg/mL (≈ 1.02 µM); in the assay on Shigella boydii it was 3.13 µg/mL (≈ 8.19 µM); against Staphylococcus aureus, 0.78 µg/mL (≈ 2.04 µM); against Streptococcus pneumoniae, 0.098 µg/mL (≈ 0.256 µM); against Shigella flexneri, 3.13 µg/mL (≈ 8.19 µM).

`CCCC[C@H](CN(O)C=O)C(=O)N1COC[C@H]1C(=O)Nc1ccc(N2CCOCC2)c(F)c1`: the MIC in assay [1] is 0.78 µg/mL (≈ 1.67 µM); in the assay on Shigella boydii it was more than 6.25 µg/mL; in the assay on Staphylococcus aureus, 0.78 µg/mL (≈ 1.67 µM); against Streptococcus pneumoniae it was 0.098 µg/mL (≈ 0.21 µM); against Shigella flexneri, more than 6.25 µg/mL.

Turning to `CCCC[C@H](CN(O)C=O)C(=O)N1COC[C@H]1C(=O)Nc1ccc(F)c[n+]1[O-]`, the MIC in assay [1] is 0.78 µg/mL (≈ 1.96 µM); against Shigella boydii, 3.13 µg/mL (≈ 7.86 µM); with Staphylococcus aureus, 0.78 µg/mL (≈ 1.96 µM); in the assay with Streptococcus pneumoniae, 0.195 µg/mL (≈ 0.489 µM); in the assay on Shigella flexneri, more than 6.25 µg/mL.

With `CCCC[C@H](CN(O)C=O)C(=O)N1CO[C@H](C)[C@H]1C(=O)Nc1ccc(F)cn1`, the MIC in assay [1] was 0.39 µg/mL (≈ 0.984 µM); in the assay with Shigella boydii, 3.13 µg/mL (≈ 7.9 µM); in the assay with Staphylococcus aureus, 1.56 µg/mL (≈ 3.94 µM); against Streptococcus pneumoniae it was 0.39 µg/mL (≈ 0.984 µM); with Shigella flexneri, more than 6.25 µg/mL.

`CCCC[C@H](CN(O)C=O)C(=O)N1CO[C@H](C)[C@H]1C(=O)Nc1ccc(N2CCOCC2)c(Cl)c1`: the MIC in assay [1] was 0.39 µg/mL (≈ 0.785 µM); in the assay with Shigella boydii, more than 6.25 µg/mL; in the assay on Staphylococcus aureus it was 0.78 µg/mL (≈ 1.57 µM); in the assay on Streptococcus pneumoniae, 0.098 µg/mL (≈ 0.197 µM); in the assay with Shigella flexneri, more than 6.25 µg/mL.

As for `CCCC[C@H](CN(O)C=O)C(=O)N1COC[C@H]1C(=O)Nc1ccc(N2CCOCC2)cc1`, the MIC in assay [1] was 0.78 µg/mL (≈ 1.74 µM); in the assay with Shigella boydii, 6.25 µg/mL (≈ 13.9 µM); against Staphylococcus aureus, 1.56 µg/mL (≈ 3.48 µM); in the assay with Streptococcus pneumoniae, 0.39 µg/mL (≈ 0.87 µM); in the assay on Shigella flexneri, more than 6.25 µg/mL.

Consider `CCCC[C@H](CN(O)C=O)C(=O)N1CO[C@H](C)[C@H]1C(=O)Nc1ccc(F)cc1`, for which the MIC in assay [1] is 0.78 µg/mL (≈ 1.97 µM); against Shigella boydii it was 3.13 µg/mL (≈ 7.92 µM); in the assay with Staphylococcus aureus, 1.56 µg/mL (≈ 3.95 µM); in the assay on Streptococcus pneumoniae it was 0.195 µg/mL (≈ 0.493 µM); with Shigella flexneri it was more than 6.25 µg/mL.

Consider `CCCC[C@H](CN(O)C=O)C(=O)N1CO[C@H](C)[C@H]1C(=O)Nc1ccc(N2CCOCC2)c(F)c1`, for which the MIC in assay [1] was 1.56 µg/mL (≈ 3.25 µM); in the assay with Shigella boydii, more than 6.25 µg/mL; against Staphylococcus aureus, 0.78 µg/mL (≈ 1.62 µM); against Streptococcus pneumoniae, 0.195 µg/mL (≈ 0.406 µM); against Shigella flexneri, more than 6.25 µg/mL.

`CCCC[C@H](CN(O)C=O)C(=O)N1COC[C@H]1C(=O)N[C@@H](C)c1ccccc1`: the MIC was 1.56 µg/mL (≈ 3.99 µM) in assay [1]; more than 6.25 µg/mL in the assay on Shigella boydii; 1.56 µg/mL (≈ 3.99 µM) with Staphylococcus aureus; 0.195 µg/mL (≈ 0.498 µM) against Streptococcus pneumoniae; more than 6.25 µg/mL in the assay with Shigella flexneri.

In the case of `CCCC[C@H](CN(O)C=O)C(=O)N1COC[C@H]1C(=O)Nc1ccc(N2CCOCC2)c(Cl)c1`, the MIC was 0.39 µg/mL (≈ 0.808 µM) in assay [1]; 6.25 µg/mL (≈ 12.9 µM) in the assay with Shigella boydii; 0.39 µg/mL (≈ 0.808 µM) with Staphylococcus aureus; 0.098 µg/mL (≈ 0.203 µM) with Streptococcus pneumoniae; 6.25 µg/mL (≈ 12.9 µM) in the assay with Shigella flexneri.

For the compound `CCCC[C@H](CN(O)C=O)C(=O)N1COC[C@H]1C(=O)Nc1ccc(OC)cc1`, the minimum inhibitory concentration (MIC) in assay [1] is 0.78 µg/mL (≈ 1.98 µM); with Shigella boydii, more than 6.25 µg/mL; against Staphylococcus aureus, 0.39 µg/mL (≈ 0.991 µM); against Streptococcus pneumoniae it was 0.195 µg/mL (≈ 0.496 µM); in the assay with Shigella flexneri it was more than 6.25 µg/mL.

Turning to `CCCC[C@H](CN(O)C=O)C(=O)N1COC[C@H]1C(=O)NCc1ccccc1`, the minimal inhibitory concentration (MIC) was 1.56 µg/mL (≈ 4.13 µM) in assay [1]; more than 6.25 µg/mL against Shigella boydii; 0.78 µg/mL (≈ 2.07 µM) with Staphylococcus aureus; 0.78 µg/mL (≈ 2.07 µM) in the assay on Streptococcus pneumoniae; more than 6.25 µg/mL with Shigella flexneri.
